Assay results as given in patent US20230339981A1, “KRAS G12D MODULATING COMPOUNDS” (priority 2022, published 2023).

Key:
[1] = system: GP2D (KRAS G12D) cells; assay: 2D cell viability assay (CellTiter-Glo); assay type: cell-based; conditions: GP2d, 96 h, 4 days
Protocol: Example B. 2D Cell Viability Assay
Compounds were tested in a 384-well format for their ability to inhibit the viability of GP2D (KRAS G12D) cells in 2D assays. Compounds were serially diluted (1:3) in DMSO. The LabCyte ECHO Acoustic dispenser system was used to pre-spot assay plates with 200 nL of test molecule per well. 1000 cells/well (40 μL volume per well) in RPMI medium with 10% FBS, and Penicillin-Streptomycin-Glutamine were plated in pre-spotted 384-well plates (Greiner, Catalog #781076) on the BioTEK EL406 liquid dispenser with a 5 μL dispensing cassette (BioTek 7170011). The plates were incubated at 37° C., 5% CO2 for 4 days before addition of CellTiter-Glo (CTG) reagent and measurement of luminescence signal. EC50 values were defined as the compound concentration that causes a 50% decrease in luminescence signal and were calculated using a sigmoidal dose-response model to generate curve fits.

[2] = target: GDP-loaded KRAS G12D (Homo sapiens (Human), UniProt P01116, G12D); assay: KRAS G12D (GDP) biochemical assay (TR-FRET probe displacement); assay type: binding; conditions: 2 hours
Protocol: Example A. KRAS G12D (GDP) Biochemical Assay
Compounds were tested for binding to GDP-loaded KRAS G12D in a 384-well assay format using a TR-FRET probe displacement assay in buffer consisting of 50 mM Hepes (pH 7.4), 150 mM NaCl, 5 mM MgCl2 and 0.005% Tween-20. […] Compounds were serially diluted (1:3) in DMSO. The LabCyte ECHO Acoustic dispenser system was used to pre-spot the assay plates (384-well Non-Binding Surface plates, Corning, Catalog #3824) with 50 nL of compound. The compounds were pre-incubated with 5 μL of 2× final enzyme concentration for 30 minutes before adding 5 μL of 2× final concentration of Eu-streptavidin and TR-FRET probe (10 μL final reaction volume). The plates were incubated at room temperature for 2 hours before measuring TR-FRET ratio on the Envision plate reader. IC50 values were defined as the compound concentration that causes a 50% decrease in TR-FRET ratio and were calculated using a sigmoidal dose-response model to generate curve fits.

Sequence of GDP-loaded KRAS G12D (P01116-2 other isoform, or with tags, fused parts or gaps G12D): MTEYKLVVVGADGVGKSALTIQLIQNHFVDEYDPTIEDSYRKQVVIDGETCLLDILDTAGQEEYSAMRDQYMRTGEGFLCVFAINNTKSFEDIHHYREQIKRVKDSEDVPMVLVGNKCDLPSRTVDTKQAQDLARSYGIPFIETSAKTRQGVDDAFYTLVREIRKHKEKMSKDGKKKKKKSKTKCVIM

Compound | EC50 [1] [nM] | IC50 [2] [nM]
Oc1cc(-c2nc3c4c(nc(OC[C@@]56CCCN5C[C@H](F)C6)nc4c2F)N2C[C@H]4CC[C@H](N4)[C@H]2CC3)c2c(CC(F)(F)F)c(F)ccc2c1 [Example 50, 6-fluoro-4-((5aR,6S,9R)-1-fluoro-12-(((2R,7aS)-2-fluorotetrahydro-1H-pyrrolizin-7a(5H)-yl)methoxy)-4,5,5a,6,7,8,9,10-octahydro-3,10a,11,13,14-pentaaza-6,9-methanonaphtho[1,8-ab]heptalen-2-yl)-5-(2,2,2-trifluoroethyl)naphthalen-2-ol] | 24 | 3
C#Cc1c(F)ccc2cc(O)cc(-c3nc4c5c(nc(OC[C@@]67CCCN6[C@H](COC(=O)N(C)c6cccc(S(F)(F)(F)(F)F)c6)CC7)nc5c3F)N3C[C@H]5CC[C@H](N5)[C@H]3CO4)c12 [Example 51, ((3S,7aS)-7a-((((5aS,6S,9R)-2-(8-ethynyl-7-fluoro-3-hydroxynaphthalen-1-yl)-1-fluoro-5a,6,7,8,9,10-hexahydro-5H-4-oxa-3,10a,11,13,14-pentaaza-6,9-methanonaphtho[1,8-ab]heptalen-12-yl)oxy)methyl)hexahydro-1H-pyrrolizin-3-yl)methyl methyl(3-(pentafluoro-λ^6-sulfaneyl)phenyl)carbamate] | 98 | 2
C#Cc1c(F)ccc2cc(O)cc(-c3nc4c5c(nc(OC[C@@]67CCCN6C[C@H](F)C7)nc5c3F)N3C[C@H]5CC[C@H](N5)[C@H]3[C@H](C)O4)c12 [Example 53, 5-ethynyl-6-fluoro-4-((5S,5aS,6S,9R)-1-fluoro-12-(((2R,7aS)-2-fluorotetrahydro-1H-pyrrolizin-7a(5H)-yl)methoxy)-5-methyl-5a,6,7,8,9,10-hexahydro-5H-4-oxa-3,10a,11,13,14-pentaaza-6,9-methanonaphtho[1,8-ab]heptalen-2-yl)naphthalen-2-ol] | 2 | 0.1
Oc1cc(-c2nc3c4c(nc(OC[C@@]56CCCN5C[C@H](F)C6)nc4c2F)N2C[C@H]4CC[C@H](N4)[C@H]2CO3)c2c(SC(F)(F)F)c(F)ccc2c1 [Example 54, 6-fluoro-4-((5aS,6S,9R)-1-fluoro-12-(((2R,7aS)-2-fluorotetrahydro-1H-pyrrolizin-7a(5H)-yl)methoxy)-5a,6,7,8,9,10-hexahydro-5H-4-oxa-3,10a,11,13,14-pentaaza-6,9-methanonaphtho[1,8-ab]heptalen-2-yl)-5-((trifluoromethyl)thio)naphthalen-2-ol] | 42 | 3
C#Cc1c(F)ccc2cc(O)cc(-c3nc4c5c(nc(OC[C@@]67CCCN6[C@H](COC(C(F)(F)F)(C(F)(F)F)C(F)(F)F)CC7)nc5c3F)N3C[C@H]5CC[C@H](N5)[C@H]3CO4)c12 [Example 55, 5-ethynyl-6-fluoro-4-((5aS,6S,9R)-1-fluoro-12-(((3S,7aS)-3-(((1,1,1,3,3,3-hexafluoro-2-(trifluoromethyl)propan-2-yl)oxy)methyl)tetrahydro-1H-pyrrolizin-7a(5H)-yl)methoxy)-5a,6,7,8,9,10-hexahydro-5H-4-oxa-3,10a,11,13,14-pentaaza-6,9-methanonaphtho[1,8-ab]heptalen-2-yl)naphthalen-2-ol] | 0.8 | 0.5
C#Cc1c(F)ccc2cc(O)cc(-c3nc4c5c(nc(OC[C@@]67CCCN6C[C@H](OC(C(F)(F)F)(C(F)(F)F)C(F)(F)F)CC7)nc5c3F)N3C[C@H]5CC[C@H](N5)[C@H]3CO4)c12 [Example 56, 5-ethynyl-6-fluoro-4-((5aS,6S,9R)-1-fluoro-12-(((6R,8aS)-6-((1,1,1,3,3,3-hexafluoro-2-(trifluoromethyl)propan-2-yl)oxy)hexahydroindolizine-8a(1H)-yl)methoxy)-5a,6,7,8,9,10-hexahydro-5H-4-oxa-3,10a,11,13,14-pentaaza-6,9-methanonaphtho[1,8-ab]heptalen-2-yl)naphthalen-2-ol] | 50 | 13
C#Cc1c(F)ccc2cc(O)cc(-c3cc4c5c(nc(OC[C@@]67CCCN6C[C@H](F)C7)nc5c3F)N3C[C@H]5CC[C@H](N5)[C@H]3CO4)c12 [Example 57, 5-ethynyl-6-fluoro-4-((5aS,6S,9R)-1-fluoro-13-(((2R,7aS)-2-fluorotetrahydro-1H-pyrrolizin-7a(5H)-yl)methoxy)-5a,6,7,8,9,1O-hexahydro-5H-6,9-epiminoazepino[2′,1′:3,4][1,4]oxazepino[5,6,7-de]quinazolin-2-yl)naphthalen-2-ol] | 28 | 0.6
C#Cc1c(F)ccc2cc(O)cc(-c3nc4c5c(nc(OC[C@@]67CCCN6C[C@H](F)C7)nc5c3F)N3C[C@H]5CC[C@H](N5)[C@H]3[C@@H](C)O4)c12 [Example 61, 5-ethynyl-6-fluoro-4-((5R,5aS,6S,9R)-1-fluoro-12-(((2R,7aS)-2-fluorotetrahydro-1H-pyrrolizin-7a(5H)-yl)methoxy)-5-methyl-5a,6,7,8,9,10-hexahydro-5H-4-oxa-3,10a,11,13,14-pentaaza-6,9-methanonaphtho[1,8-ab]heptalen-2-yl)naphthalen-2-ol] | 520 | 26
C#Cc1c(F)c(F)cc2cccc(-c3nc4c5c(nc(OC[C@@]67CCCN6C[C@H](F)C7)nc5c3F)N3C[C@H]5CC[C@H](N5)[C@H]3CO4)c12 [Example 62, (5aS,6S,9R)-2-(8-ethynyl-6,7-difluoronaphthalen-1-yl)-1-fluoro-12-(((2R,7aS)-2-fluorotetrahydro-1H-pyrrolizin-7a(5H)-yl)methoxy)-5a,6,7,8,9,10-hexahydro-5H-4-oxa-3,10a,11,13,14-pentaaza-6,9-methanonaphtho[1,8-ab]heptalene] | 79 | 7
C#Cc1c(F)ccc2cc(O)cc(-c3nc4c5c(nc(OC[C@@]67CCCN6[C@H](COC(C(F)(F)F)(C(F)(F)F)C(F)(F)F)CC7)nc5c3F)N3C[C@H]5CC[C@H](N5)[C@H]3CC4)c12 [Example 63, 5-ethynyl-6-fluoro-4-((5aR,6S,9R)-1-fluoro-12-(((3S,7aS)-3-(((1,1,1,3,3,3-hexafluoro-2-(trifluoromethyl)propan-2-yl)oxy)methyl)tetrahydro-1H-pyrrolizin-7a(5H)-yl)methoxy)-4,5,5a,6,7,8,9,10-octahydro-3,10a,11,13,14-pentaaza-6,9-methanonaphtho[1,8-ab]heptalen-2-yl)naphthalen-2-ol] | 0.2 | 0.2
C#Cc1c(F)ccc2cc(O)cc(-c3nc4c5c(nc(OC[C@@]67CCCN6C[C@H](F)C7)nc5c3F)N3C[C@H]5CC[C@H](N5)[C@@H]3[C@@H](C)C4)c12 [Example 64, 5-ethynyl-6-fluoro-4-((5S,5aS,6S,9R)-1-fluoro-12-(((2R,7aS)-2-fluorotetrahydro-1H-pyrrolizin-7a(5H)-yl)methoxy)-5-methyl-4,5,5a,6,7,8,9,10-octahydro-3,10a,11,13,14-pentaaza-6,9-methanonaphtho[1,8-ab]heptalen-2-yl)naphthalen-2-ol] | 0.3 | 0.1
Fc1ccc2c(-c3nc4c5c(nc(OC[C@@]67CCCN6C[C@H](F)C7)nc5c3F)N3C[C@H]5CC[C@H](N5)[C@H]3CO4)cccc2c1 [Example 66, (5aS,6S,9R)-1-fluoro-2-(6-fluoronaphthalen-1-yl)-12-(((2R,7aS)-2-fluorotetrahydro-1H-pyrrolizin-7a(5H)-yl)methoxy)-5a,6,7,8,9,10-hexahydro-5H-4-oxa-3,10a,11,13,14-pentaaza-6,9-methanonaphtho[1,8-ab]heptalene] | > 1000 | 860
C#Cc1c(F)ccc2cc(O)cc(-c3nc4c5c(nc(OCC6(CN7CCC[C@@H](F)C7)CC6)nc5c3F)N3C[C@H]5CC[C@H](N5)[C@H]3CC4)c12 [Example 67] | 1 | 0.08
C#Cc1c(F)ccc2cc(O)cc(-c3nc4c5c(nc(OCC6(CN7CCC(F)CC7)CC6)nc5c3F)N3C[C@H]5CC[C@H](N5)[C@H]3CC4)c12 [Example 68, 5-ethynyl-6-fluoro-4-((5aR,6S,9R)-1-fluoro-12-((1-((4-fluoropiperidin-1-yl)methyl)cyclopropyl)methoxy)-4,5,5a,6,7,8,9,10-octahydro-3,10a,11,13,14-pentaaza-6,9-methanonaphtho[1,8-ab]heptalen-2-yl)naphthalen-2-ol] | 0.6 | 0.05
C#Cc1c(F)ccc2cc(O)cc(-c3nc4c5c(nc(OCC6(CN7CCC(C(F)(F)F)CC7)CC6)nc5c3F)N3C[C@H]5CC[C@H](N5)[C@H]3CC4)c12 [Example 69, 5-ethynyl-6-fluoro-4-((5aR,6S,9R)-1-fluoro-12-((1-((4-(trifluoromethyl)piperidin-1-yl)methyl)cyclopropyl)methoxy)-4,5,5a,6,7,8,9,10-octahydro-3,10a,11,13,14-pentaaza-6,9-methanonaphtho[1,8-ab]heptalen-2-yl)naphthalen-2-ol] | 0.6 | 0.1
